Values after ≈ are worked out from the molar mass of the structure shown. Values joined by “and” are separate entries in the source; they are usually repeats but may differ in a detail not shown here. Identical values can stand only once. Like-named read-outs stand apart in the source and are kept apart here. One block for each compound: values may come before it.
Assays:
[1] = tested on: Caco-2 cells; assay: Caco-2 cell permeability
[2] = tested on: P-gp (MDR1); assay: in vitro; conditions: dog, MDCK-MDR1
[3] = in vitro; conditions: human, Caco-2
[4] = tested on: MDCKII-MDR1 cells; conditions: dog, MDCK-MDR1
[5] = tested on: MDCKII-MDR1 cells; assay: MDCKII-MDR1 cell permeability
[6] = Metabolic stability in rat hepatocytes; assay type: in vitro ADME
[7] = Metabolic stability in human hepatocytes; assay type: in vitro ADME
[8] = set-up: method as in NDA application no. 203341 Pharmacology Review(s) page 40; conditions: nude mice, 50 mg/kg po and 5 mg/kg iv dosing, ref NDA application no. 203341 Pharmacology Review(s) page 40; cited from earlier work
[9] = Plasma protein binding by equilibrium dialysis, human; assay type: in vitro ADME
[10] = Metabolic stability in rat liver microsomes; assay type: in vitro ADME
[11] = Plasma protein binding by equilibrium dialysis, rat; assay type: in vitro ADME; conditions: for fu, plasma % / %Unbound: 5 μM, equilibrium dialysis
[12] = logD7.4 by shake-flask method; assay type: physicochemical; conditions: pH 7.4
[13] = Solubility in aqueous buffer at pH 7.4; assay type: physicochemical; conditions: aqueous buffer at pH 7.4, n = 1; read-out: aq sol.
[14] = tested on: Molt-4 cells; assay: Cell viability assay (CellTiter-Glo), Molt-4; assay type: cell-based, human; conditions: Homo sapiens, MOLT-4; BCR-ABL1 negative; read-out: IC50, Molt-4
[15] = Metabolic stability in human liver microsomes; assay type: in vitro ADME
[16] = pKa determination by pH-metric method; assay type: physicochemical
Method: Figure 3 Matched molecular pair (MMP) analysis on the 2-methoxyphenoxy-propyl-N-methylpiperazine scaffold and pKa values of related δ-alkoxy substituted amines. (A) MMP analysis of a bosutinib fragment. All measurements were assayed by Pharmaron Inc., and values presented represent the mean of n = 2 technical replicates, unless otherwise specified. logD7.4 was determined by the shake-flask method. […] (B) Reported[54] pKa values of related dimethylamines highlighting similarities in pKa values of δ-alkoxy substitution patterns. TEXT PRINTED IN THE PICTURE: (A) 17: logD7.4: 0.9; Aq. Sol. (μM): 277; pKa1: 4.2; pKa2: 8.1 | (A) 18: logD7.4: 1.0; Aq. Sol. […]
Inc. using methods previously derscribed.1 […]
Shedlovsky extrapolation for the pH-metric pKa method. […]

[17] = cited from earlier work; for ΔpKa: relative to simple tertiary amine 19, δ-position substituent
[18] = pH-metric method, range -12, read-out: pKa1

Recovery% (BL-AP) [1]: 100.41% | Papp A→B at 2 h, 1 μM [2]: 27.9 ×10⁻⁶ cm/s | Papp B→A at 2 h, 1 μM [2]: 31 ×10⁻⁶ cm/s | efflux ratio at 2 h, 1 μM [2]: 1.11 | recovery [2]: 99.9% | Papp A→B at 2 h, 5 μM [3]: 23.1 ×10⁻⁶ cm/s | Papp B→A at 2 h, 5 μM [3]: 21.8 ×10⁻⁶ cm/s | efflux ratio at 2 h, 5 μM [3]: 0.95 | recovery [3]: 106% | Recovery% (BL-AP) [4]: 96.11%
SMILES: COCCc1ccc(OCC(O)CNC(C)C)cc1 (stereo not shown) [Metoprolol]

SMILES: COc1cc(Nc2c(C#N)cnc3cc(OCCCN4CCN(C)CC4)c(OC)cc23)c(Cl)cc1Cl [bosutinib]
Recovery% (BL-AP) [5]: 65.52% | Remaining Percentages, 0.5 min [6]: 100.00% | Remaining Percentages, 15 min [6]: 50.17% | Remaining Percentages, 30 min [6]: 21.78% | Remaining Percentages, 60 min [6]: 5.83% | Remaining Percentages, 90 min [6]: 1.83% | Remaining Percentages, 120 min [6]: 0.73% | half-life at 2 h ([6]; male, SD): 13.4 min | hepatocyte CLint at 2 h ([6]; male, SD): 103 µL/min/1e6 cells | Remaining Percentages, 0.5 min [7]: 100.00% | Remaining Percentages, 15 min [7]: 73.99% | Remaining Percentages, 30 min [7]: 79.28% | Remaining Percentages, 60 min [7]: 53.95% | Remaining Percentages, 90 min [7]: 34.15% | Remaining Percentages, 120 min [7]: 20.73% | half-life at 2 h ([7]; both sexes): 54.9 min | hepatocyte CLint at 2 h ([7]; both sexes): 25.3 µL/min/1e6 cells | AUCinf [8]: 11 677 h·nM | Cmax [8]: 1510 nM | Recovery% (BL-AP) [1]: 70.73% | recovery [2]: 56% | fu, plasma % / %Unbound ([9]; 5 μM, equilibrium dialysis): 4.53% | recovery ([9]; both sexes): 94% | fraction unbound at 6 h, 5 µM ([9]; both sexes, 5 μM, equilibrium dialysis, read-out: fu, plasma % / %Unbound): 0.045 | fraction unbound at 5 μM ([9]; both sexes, read-out: %Bound (converted)): 0.0453 | Remaining Percentage, 0.5 min ([10]; +Cofactors): 100.00% | Remaining Percentage, 15 min ([10]; +Cofactors): 14.79% | Remaining Percentage, 30 min ([10]; +Cofactors): 5.02% | Remaining Percentage, 45 min ([10]; +Cofactors): 2.62% | Remaining Percentage, 0.5 min ([10]; -Cofactors): 100.00% | half-life at 1 h ([10]; male, SD, pooled): 5.3 min | microsomal CLint at 1 h ([10]; male, SD, pooled, read-out: LMClint): 264 µL/min/mg | fu, plasma % / %Unbound [11]: 7.2% | fu, plasma % / %Unbound ([11]; listed as Bosutinib): 7.20% | recovery ([11]; both sexes, SD): 91.1% | remaining at 6 h, 5 μM ([11]; both sexes, SD): 90.7% | fraction unbound at 5 μM ([11]; both sexes, SD, read-out: fu, plasma % / %Unbound (converted)): 0.072 | logD at 2 h [12]: 3.1 | solubility [13]: 14 µM (≈ 7.43 µg/mL) | IC50 [14]: > 2 µM | Remaining Percentage, 0.5 min ([15]; +Cofactors): 100.00% | Remaining Percentage, 15 min ([15]; +Cofactors): 12.40% | Remaining Percentage, 30 min ([15]; +Cofactors): 2.94% | Remaining Percentage, 45 min ([15]; +Cofactors): 1.16% | Remaining Percentage, 60 min ([15]; +Cofactors): BLOD | Remaining Percentage, 0.5 min ([15]; -Cofactors): 100.00% | Remaining Percentage, 60 min ([15]; -Cofactors): 91.23% | half-life at 1 h ([15]; both sexes, pooled): 4.8 min | microsomal CLint at 1 h ([15]; both sexes, pooled, read-out: LMClint): 288 µL/min/mg

logD at 2 h [12]: 0.9 | solubility [13]: > 250 µM and 277 µM | pKa ([16]; pH 2, pH-metric method, range pH 2-12, read-out: pKa2): 8.1 | pKa [16, 18]: 4.2
SMILES: COc1ccccc1OCCCN1CCN(C)CC1 [compound 17]

logD at 2 h [12]: 1 | solubility [13]: > 250 µM and 287 µM | pKa [16, 18]: 7.4 | ΔpKa ([16]; terminal N-methylamine of 18 relative to 17): −0.7
SMILES: COc1ccccc1OCCON1CCN(C)CC1 [compound 18]

SMILES: COCCCN(C)C [compound 20]
ΔpKa [17]: −0.8

SMILES: CN(C)CCCO [compound 21]
ΔpKa [17]: −0.9

SMILES: NO [hydroxylamine]
pKa ([17]; simple hydroxylamine): 5.9

Source: paper PMC10726475, “Atypical N-Alkyl to N-Noralkoxy Switch in a Dual cSRC/BCR-ABL1 Kinase Inhibitor Improves Drug Efflux and hERG Affinity” (ACS Medicinal Chemistry Letters, 2023)
